# Measurements published in US12680081B2, “Human induced pluripotent stem cell line transformed with fluorescent protein-labeled cytochrome P450 and AHR modulator screening method using same” (priority 2020, dated 2026).
# Structures can show the parent of a compound that is named as a salt.
# What was measured:
# AHR-CYP1A1 axis = experiment: High-content screening (HCS) of mCherry intensity in live CYP1A1-mCherry HLCs; details: for inhibition of the effect of TCDD on mCherry expression: human
# Description: 9. Chemical Treatment and High-Content Screening (HCS)
# To perform HCS, the cells differentiated for 10 days were dissociated, plated in a Matrigel®-coated 96-well plate, and cultured for maturation. […] DMSO was used as a vehicle control. For staining the live cell nucleus, cells were cultured with 2 μg/ml of Hoechst 33342 (Life Technologies) for 10 minutes. Stained cells were imaged using ImageXpress Micro XLS Widefield High-Content Analysis System (Molecular Devices, San Jose, Calif., USA). The acquired images were analyzed using MetaXpress High-Content Image Acquisition and Analysis Software (Molecular Devices) according to disclosed methods. For analysis, cells were first identified using Hoechst staining and mCherry intensity was detected to measure CYP1A1 expression.
# CYP1A1-mCherry HLC = experiment: Cell viability analysis (cell counting Kit-8); type: cell-based; details: working concentration 10 μM, 24 hours, FIG. 10b
# Description: 11. Cell Viability Analysis
# To analyze cell viability, target chemicals (10 μM) were treated for 24 hours prior to performing cell viability analysis. Then, 10 μl of cell counting Kit-8 was added to 100 μl of the medium, followed by incubation for 2 hours. Absorbance was measured at 450 nm using an iMark™ microplate absorbance reader (Bio-Rad). Cell viability was calculated using the following formula: Cell viability (%)=(Asample−Ablank)/(Acontrol−Ablank)×100
# CYP1A1 = experiment: Ethoxyresorufin-O-deethylase (EROD) analysis of CYP1A1 activity in CYP1A1-mCherry HLCs; details: for inhibition of the effect of TCDD on CYP1A1 activity: FIG. 10d
# Description: Ethoxyresorufin-O-Deetylase (EROD) Analysis
# To measure the CYP1A1 activity, cells were cultured in a serum-free medium for 24 hours before treatment. The cells were treated with 7.5 μM ethoxyresorufin in the presence or absence of 10 μM dicumarol (inhibitor) in HBSS for 7.5, 15, 30 and 60 minutes, and 100 μl of the medium was removed into a new microcentrifuge tube. The same amount (100 μl) of ice-cold acetonitrile-methanol was added to the removed medium, followed by brief vortexing and centrifugation at 16,000×g for 5 minutes at 4° C. The supernatant was used for the following analysis. The level of the metabolite resorufin was measured by high-performance liquid chromatography (HPLC) with a Luna C18 column (4.6×150 mm, 5 μm; Phenomenex, Seoul, Korea). The moving phase was composed of 20 mM phosphate buffer-methanol-acetonitrile (52:45:3, v/v/v), and the flow rate was 0.8 ml/minute. Fluorescence was measured at an excitation wavelength of 560 nm and an emission wavelength of 585 nm. Concentrations were calculated using a standard curve for resorufin normalized by the total cellular protein content measured using a BCA protein analysis kit (Thermo Fisher Scientific).
# CYP1A1 mRNA = test system: CYP1A1 mRNA
# Description: 8. Quantitative Reverse Transcription PCR (RT-qPCR)
# Total RNA was extracted from each sample using NucleoZOL reagent (Macherey-Nagel, Duren, Germany) and reverse transcription was performed using GoScript™ reverse transcription mix (Promega) according to the manufacturer's protocol. RT-qPCR was performed with SYBR Green Realtime PCR Master Mix (TOYOBO, Osaka, Japan) in StepOnePlus Real-Time PCR system (Applied Biosystems, Foster City, Calif., USA). PCR amplification was performed in triplicate for each sample. PCR results were expressed as relative fold change compared to the control cells after normalization with glyceraldehyde-3-phosphate dehydrogenase (GAPDH). The ΔCt (SΔCt) value was calculated as the difference between the Ct value obtained for GAPDH and the target gene. The ΔCt value of the control cells was used as the control ΔCt (CΔCt) value. The relative gene expression level was determined using the following formula: 2−(SΔCt−CΔCt).
# After preparing cells for RNA extraction, RT-qPCR analysis for the expression of CYP1A1 mRNA was performed according to the above procedure. Dose-response curves were created by the least squares fitting method using GraphPad Prism 5 (GraphPad, San Diego, Calif., USA).
# mouse AHR = target: T1, mouse AHR (Mus musculus, UniProt P30561); details: mouse AHR higher than human AHR; cited from earlier work
# T1 sequence (P30561 10-848): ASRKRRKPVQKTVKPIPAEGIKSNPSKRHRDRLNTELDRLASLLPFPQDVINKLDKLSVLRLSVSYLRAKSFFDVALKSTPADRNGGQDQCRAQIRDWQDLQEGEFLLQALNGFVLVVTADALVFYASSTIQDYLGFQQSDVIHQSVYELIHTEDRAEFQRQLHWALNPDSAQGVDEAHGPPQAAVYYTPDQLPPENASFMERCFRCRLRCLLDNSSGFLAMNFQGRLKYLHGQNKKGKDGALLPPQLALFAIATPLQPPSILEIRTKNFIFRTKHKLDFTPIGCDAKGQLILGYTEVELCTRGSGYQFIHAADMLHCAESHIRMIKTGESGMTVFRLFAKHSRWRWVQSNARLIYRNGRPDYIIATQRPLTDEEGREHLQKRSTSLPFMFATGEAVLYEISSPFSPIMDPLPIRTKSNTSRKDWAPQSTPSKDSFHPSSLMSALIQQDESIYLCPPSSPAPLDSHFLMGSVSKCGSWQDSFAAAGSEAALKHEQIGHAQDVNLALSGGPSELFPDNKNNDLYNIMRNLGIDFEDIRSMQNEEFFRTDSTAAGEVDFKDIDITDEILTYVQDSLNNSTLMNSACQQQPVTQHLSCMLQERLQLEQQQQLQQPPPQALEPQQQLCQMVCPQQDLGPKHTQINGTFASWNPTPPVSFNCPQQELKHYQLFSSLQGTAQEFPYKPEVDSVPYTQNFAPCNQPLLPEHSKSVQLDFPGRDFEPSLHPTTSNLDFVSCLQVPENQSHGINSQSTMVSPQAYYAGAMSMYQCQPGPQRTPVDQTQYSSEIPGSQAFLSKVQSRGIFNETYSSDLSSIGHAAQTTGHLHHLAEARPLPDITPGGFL
smiles,measurement,setting,value
"COc1ccc(/C=C/c2cc(OC)cc(=O)o2)cc1 [2-E05, yangonin]",mCherry intensity compared to CH223191 and TMF,AHR-CYP1A1 axis,significant decrease
same,inhibition of the effect of TCDD on mCherry expression,AHR-CYP1A1 axis,at the levels of the non-treated control and CH223191
same,cell death (cell viability),CYP1A1-mCherry HLC,without cell death
same,inhibition of the effect of TCDD on CYP1A1 activity,CYP1A1,at the levels of the non-treated control and CH223191
"COc1cc(/C=C/c2ccccc2)oc(=O)c1 [2-E06, desmethoxyyangonin]",mCherry intensity compared to CH223191 and TMF,AHR-CYP1A1 axis,significant decrease
same,inhibition of the effect of TCDD on mCherry expression,AHR-CYP1A1 axis,at the levels of the non-treated control and CH223191
same,cell death (cell viability),CYP1A1-mCherry HLC,without cell death
same,inhibition of the effect of TCDD on CYP1A1 activity,CYP1A1,at the levels of the non-treated control and CH223191
Cc1ccccc1N=Nc1ccc(NC(=O)c2ccnn2C)c(C)c1 [CH223191],transcript expression levels of CYP1A1 and mCherry,"CYP1A1 mRNA; co-treatment with BaP or TCDD, FIG. 7b",reduced
"Clc1cc2c(cc1Cl)Oc1cc(Cl)c(Cl)cc1O2 [TCDD, 2,3,7,8-tetrachlorodibenzo-p-dioxin]",mCherry intensity after treatment,"AHR-CYP1A1 axis; CYP1A1-mCherry HLC, AHR agonist treatment, FIG. 6a",time-dependent increase
same,affinity of mouse AHR with TCDD compared to human AHR,mouse AHR,10 fold
same,CYP1A1 activity,"CYP1A1; 60 minutes, FIG. 6b",increased
O=C(OCC(O)CO)c1ccccc1Nc1ccnc2cc(Cl)ccc12 (centres unmarked) [glafenine],concentration of maximal induction,CYP1A1 mRNA,maximal induction at the concentrations used for screening
same,"increase according to the dose (dose-response, CYP1A1 mRNA)",CYP1A1 mRNA; human,6- to 7 fold
CC(Cc1ccc(O)c(O)c1)C(C)Cc1ccc(O)c(O)c1 (centres unmarked) [nordihydroguaiaretic acid],"effect according to the dose (dose-response, CYP1A1 mRNA)","CYP1A1 mRNA; human, 24 h",~ 2 times
COc1ccc(Cc2nccc3cc(OC)c(OC)cc23)cc1OC [papaverine hydrochloride],concentration of maximal induction,CYP1A1 mRNA,maximal induction at the concentrations used for screening
same,"increase according to the dose (dose-response, CYP1A1 mRNA)",CYP1A1 mRNA; human,6- to 7 fold
